Experimental data published in ChEMBL document CHEMBL1201862, “PubChem BioAssay data set” (2004).
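How tested: cells in 96-well plates exposed to compound for 48 hours at five concentrations. GI50 marks 50% less growth.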 Activity calls are given as the source filed them. No stated cut-off is given here; in the data, active = GI50 up to about 1.1 µM and inactive = higher.

Experiments:
Test in all cases: NCI tumour cell line growth inhibition, 48 h
[1] = system: OVCAR-5
[2] = system: CAKI-1
[3] = system: OVCAR-8
[4] = system: NCI-H226
[5] = system: SK-MEL-28
[6] = system: TK-10
[7] = system: NCI-H23
[8] = system: RPMI-8226
[9] = system: SK-MEL-5
[10] = system: M14
[11] = system: PC-3
[12] = system: A549
[13] = system: EKVX
[14] = system: SR
[15] = system: SF-268
[16] = system: NCI-H460
[17] = system: MCF7
[18] = system: SF-295
[19] = system: UACC-257
[20] = system: OVCAR-4

SMILES | GI50 [1] | GI50 [2] | GI50 [3] | GI50 [4] | GI50 [5] | GI50 [6] | GI50 [7] | GI50 [8] | GI50 [9] | GI50 [10] | GI50 [11] | GI50 [12] | GI50 [13] | GI50 [14] | GI50 [15] | GI50 [16] | GI50 [17] | GI50 [18] | GI50 [19] | GI50 [20]
N/C(S)=N/N=C/c1ccc(N)cn1 | 9.06 µM (inactive) | 3.78 µM (inactive) | 3.18 µM (inactive) | 4.24 µM (inactive) | > 10 µM (inactive) | > 10 µM (inactive) | 2.13 µM (inactive) | 3.52 µM (inactive) | 2.25 µM (inactive) | 2.21 µM (inactive) | 6.15 µM (inactive) | 3.54 µM (inactive) | > 10 µM (inactive) | 3.67 µM (inactive) | 4.29 µM (inactive) | 3.09 µM (inactive) | 3.01 µM (inactive) | 3.52 µM (inactive) | > 10 µM (inactive) | > 10 µM (inactive)
CC[N+]1(C)CCC(O)(/C=C/c2ccccc2)C(C(=O)/C=C/c2ccccc2)C1 (stereo not given) | 18.1 µM (inactive) | 1.85 µM (inactive) | 9.1 µM (inactive) | 14.7 µM (inactive) | 7.4 µM (inactive) | 7.28 µM (inactive) | 15.2 µM (inactive) | 0.706 µM (active) | 16.6 µM (inactive) | 11.3 µM (inactive) | 14.6 µM (inactive) | 20.3 µM (inactive) | 22.5 µM (inactive) | 2.34 µM (inactive) | 15.6 µM (inactive) | 15 µM (inactive) | 3.05 µM (inactive) | 16.7 µM (inactive) | 10.2 µM (inactive) | 13.7 µM (inactive)
COc1cc(/C=C2\N=C(c3ccccc3)N(c3nc4ccccc4s3)C2=O)cc(OC)c1OC | > 100 µM (inactive) | 70.6 µM (inactive) | 31 µM (inactive) | > 100 µM (inactive) | 33 µM (inactive) | > 100 µM (inactive) | 31.1 µM (inactive) | 0.352 µM (active) | 49.9 µM (inactive) | 31.4 µM (inactive) | 50.5 µM (inactive) | 29.6 µM (inactive) | 21.8 µM (inactive) | 11.7 µM (inactive) | 26.5 µM (inactive) | 65.5 µM (inactive) | 31.3 µM (inactive) | 39.5 µM (inactive) | > 100 µM (inactive) | 23.9 µM (inactive)
O=C1C(Cl)=C(Nc2ccc(OC(F)(F)F)cc2)C(=O)c2c(O)ccc(O)c21 | 1.76 µM (inactive) | 1.6 µM (inactive) | 0.71 µM (active) | 1.5 µM (inactive) | 0.762 µM (active) | 1.48 µM (inactive) | 0.303 µM (active) | 0.0598 µM (active) | 2.11 µM (inactive) | 0.423 µM (active) | 0.679 µM (active) | 1.22 µM (inactive) | 0.877 µM (active) | 0.275 µM (active) | 0.594 µM (active) | 1.71 µM (inactive) | 0.46 µM (active) | 1.93 µM (inactive) | 0.959 µM (active) | 1.57 µM (inactive)
C[C@H]1CC[C@H](NC(=O)N(CCCl)N=O)CC1 | 55.7 µM (inactive) | 27.2 µM (inactive) | 53.2 µM (inactive) | 59 µM (inactive) | 46.2 µM (inactive) | 63.4 µM (inactive) | 54.5 µM (inactive) | 31.6 µM (inactive) | 40.4 µM (inactive) | 27.6 µM (inactive) | 47.9 µM (inactive) | 51.3 µM (inactive) | 78.3 µM (inactive) | 10.6 µM (inactive) | 22.1 µM (inactive) | 39.1 µM (inactive) | 50.4 µM (inactive) | 13.4 µM (inactive) | 46.3 µM (inactive) | 31.6 µM (inactive)
O=C(O)c1c2c(cc3c1CC1(Cc4ccccc4C1=O)C3)CCC2 (stereo not given) | 65.5 µM (inactive) | 41.5 µM (inactive) | 44.9 µM (inactive) | 24.3 µM (inactive) | 52 µM (inactive) | > 66.7 µM (inactive) | 44 µM (inactive) | 18.4 µM (inactive) | 19.6 µM (inactive) | 18.9 µM (inactive) | 27.2 µM (inactive) | 11.1 µM (inactive) | 33.9 µM (inactive) | 2.93 µM (inactive) | 59.4 µM (inactive) | 4.62 µM (inactive) | 26.2 µM (inactive) | 38.6 µM (inactive) | 50 µM (inactive) | 27.8 µM (inactive)
CC1(C)N=C(N)N=C(N)N1CCCCc1ccccc1 | 1.99 µM (inactive) | 7.94 µM (inactive) | 0.251 µM (active) | 6.47 µM (inactive) | 8.59 µM (inactive) | 1.19 µM (inactive) | 0.31 µM (active) | 2.43 µM (inactive) | 0.59 µM (active) | 0.181 µM (active) | 9.51 µM (inactive) | 0.113 µM (active) | 2.21 µM (inactive) | < 0.0334 µM (active) | < 0.025 µM (active) | 0.151 µM (active) | 0.838 µM (active) | 0.145 µM (active) | 1.63 µM (inactive) | 17.3 µM (inactive)
CN(C)c1ccc(/C=C(\NC(=O)c2ccccc2)C(=O)NC(CC(=O)O)C(=O)O)cc1 (stereo not given) | > 100 µM (inactive) | > 100 µM (inactive) | 68.9 µM (inactive) | > 100 µM (inactive) | > 100 µM (inactive) | > 100 µM (inactive) | > 100 µM (inactive) | > 100 µM (inactive) | 94.6 µM (inactive) | > 100 µM (inactive) | > 100 µM (inactive) | > 100 µM (inactive) | > 100 µM (inactive) | 75 µM (inactive) | 61.4 µM (inactive) | 65.9 µM (inactive) | > 100 µM (inactive) | > 100 µM (inactive) | > 100 µM (inactive) | 53.2 µM (inactive)
COC12OC3CC4(C)C(=CC3OC(OC(C)C1O)C2O)CCC1C4CCC2(C)C(c3ccc(=O)oc3)CCC12O (stereo not given) | 0.00132 µM (active) | 0.00147 µM (active) | 0.00144 µM (active) | 0.00246 µM (active) | 0.00385 µM (active) | 0.00122 µM (active) | 0.00125 µM (active) | 0.00177 µM (active) | < 0.001 µM (active) | 0.0023 µM (active) | 0.00142 µM (active) | 0.00119 µM (active) | < 0.001 µM (active) | 0.0014 µM (active) | 0.00105 µM (active) | 0.0014 µM (active) | 0.00178 µM (active) | 0.00176 µM (active) | 0.00283 µM (active) | 0.00126 µM (active)
O=C(/C=C/c1ccco1)c1cccc(C(=O)/C=C/c2ccco2)n1 | 26.1 µM (inactive) | 25 µM (inactive) | 2.69 µM (inactive) | > 100 µM (inactive) | 15.4 µM (inactive) | 41.2 µM (inactive) | 11.7 µM (inactive) | 1.87 µM (inactive) | 48.6 µM (inactive) | 27.2 µM (inactive) | 13.2 µM (inactive) | 27.1 µM (inactive) | 57.3 µM (inactive) | 1.37 µM (inactive) | 5.24 µM (inactive) | 42.4 µM (inactive) | 0.662 µM (active) | 40.1 µM (inactive) | 60.7 µM (inactive) | > 73.5 µM (inactive)
Cc1c(NC(=O)CSC(=S)N2CCN(Cc3ccccc3)CC2)c(=O)n(-c2ccccc2)n1C | > 100 µM (inactive) | > 100 µM (inactive) | > 100 µM (inactive) | > 100 µM (inactive) | > 100 µM (inactive) | > 100 µM (inactive) | > 100 µM (inactive) | > 100 µM (inactive) | > 100 µM (inactive) | > 100 µM (inactive) | > 100 µM (inactive) | > 100 µM (inactive) | > 100 µM (inactive) | > 100 µM (inactive) | > 100 µM (inactive) | > 100 µM (inactive) | > 100 µM (inactive) | > 100 µM (inactive) | > 100 µM (inactive) | > 100 µM (inactive)
Cc1ccc2[nH]c3c(c2c1)C1CCC(C(C)(C)C)CC1C1C(=O)N(c2ccc4c(c2)OCO4)C(=O)C31 (stereo not given) | 3.61 µM (inactive) | 2.3 µM (inactive) | 1.97 µM (inactive) | 2.84 µM (inactive) | 5.61 µM (inactive) | 2.05 µM (inactive) | 6.55 µM (inactive) | 4.3 µM (inactive) | 8.15 µM (inactive) | 4.7 µM (inactive) | 3.07 µM (inactive) | 2.31 µM (inactive) | 3.57 µM (inactive) | 1.91 µM (inactive) | 2.03 µM (inactive) | 1.78 µM (inactive) | 3.24 µM (inactive) | 3.11 µM (inactive) | 9.68 µM (inactive) | 1.85 µM (inactive)
O=[N+]([O-])C(=C(Cl)Cl)C(Cl)=C(Cl)Cl | 2.02 µM (inactive) | 0.15 µM (active) | 0.619 µM (active) | 0.834 µM (active) | 0.105 µM (active) | 0.372 µM (active) | 0.265 µM (active) | < 0.0176 µM (active) | 0.52 µM (active) | 0.0202 µM (active) | 0.778 µM (active) | 6.44 µM (inactive) | 3.65 µM (inactive) | 0.13 µM (active) | 0.701 µM (active) | 1.96 µM (inactive) | 0.114 µM (active) | 3.06 µM (inactive) | 0.166 µM (active) | 0.0847 µM (active)
Cc1nn(C(=O)c2ccncc2)c2c1C(c1ccc(Cl)cc1)SC(=N)N2 (stereo not given) | > 10 µM (inactive) | > 10 µM (inactive) | > 10 µM (inactive) | > 10 µM (inactive) | > 10 µM (inactive) | > 10 µM (inactive) | > 10 µM (inactive) | > 10 µM (inactive) | > 10 µM (inactive) | > 10 µM (inactive) | > 10 µM (inactive) | > 10 µM (inactive) | > 10 µM (inactive) | > 10 µM (inactive) | > 10 µM (inactive) | > 10 µM (inactive) | > 10 µM (inactive) | > 10 µM (inactive) | > 10 µM (inactive) | > 10 µM (inactive)
